Series [1] has as its system hepatocyte-stromal cell cocultures comprising dog primary hepatocytes. On the procedure: (§1) Cell viability was analyzed using a CellTiter-Blue (Promega) assay, n=4.
(§2) These are concentration dependent toxicity curves generated after 6 days of repeat compound exposure in the 4 different species. Each compound was dosed every 2 days starting on day 0. On the 6th day the Promega Celltiter blue assay was used to measure the conversion of resazurin to the fluorescent resorufin.
(§3) Cryopreserved human hepatocytes were obtained from Thermo Fisher (formerly Life Technologies Corporation). Cryopreserved non-human primate (cynomolgus monkey) hepatocytes were obtained from Thermo Fisher (formerly Life Technologies Corporation). Cryopreserved dog hepatocytes were obtained from IVT Bioreclamation. Cryopreserved rat hepatocytes were obtained from Thermo Fisher (formerly Life Technologies Corporation). The cryopreserved hepatocytes were removed from liquid nitrogen and thawed. After thawing, cells were re-suspended in medium and cell number and cell viability was determined using trypan blue exclusion. Stromal cells were passed in a CO2 incubator until used for experimental plating. On plating day cells were detached from the plate, washed, and re-suspended in medium. Cell number and viability were determined using trypan blue exclusion.
(§4) The stromal cells were growth arrested prior to seeding.
(§5) The graphs in FIGS. 11-13 present concentration dependent toxicity curves generated after 6 days of repeat compound exposure in human, dog, primate, and rat. Each compound was dosed every two days for treatment periods of two days, four days, and six days across a full range of concentrations. On the sixth day a Promega Celltiter blue assay was used to measure mitochondrial metabolic activity. That data was then used to generate a TC50 value. […] In FIG. 11 cyclophosphamide was administered every two days for treatment periods of two days, four days, and six days across a full range of concentrations.

Series [2] deals with hepatocyte-stromal cell cocultures comprising human primary hepatocytes. On the procedure:
as §1, §2, §3, §4, §5

Series [3] has as its system hepatocyte-stromal cell cocultures comprising primate primary hepatocytes. The protocol: as §1, §2, §3, §4, §5
In series [4] the test system is hepatocyte-stromal cell cocultures comprising rat primary hepatocytes. The protocol: as §1, §2, §3, §4, §5
For series [5] the following is noted: known profile of reference compound; cited from earlier work.

The source of these data is US20180113119A1, “METHODS FOR CHARACTERIZING TIME-BASED HEPATOTOXICITY” (HUREL CORPORATION, priority 2015, published 2018).

Read-outs that look alike come from different tables or passages of the source.

Consider `O=P1(N(CCCl)CCCl)NCCCO1` (stereo not shown) [Cyclophosphamide], for which the “LC50 (TC50)” value in series [1] (Dog, 6 days of repeat exposure, dosed every 2 days, Celltiter blue) was 7,541 μM; in series [2] (Human, 6 days of repeat exposure, dosed every 2 days, Celltiter blue), 5,523 μM; in series [3] (Monkey, 6 days of repeat exposure, dosed every 2 days, Celltiter blue), 1,904 μM; in series [4] (Rat, 6 days of repeat exposure, dosed every 2 days, Celltiter blue), 1,506 μM. For the same compound, the “effect of multiple dosing on cytotoxicity (cell viability)” value was “extending the duration of dosing increases the cyclophosphamide cytotoxicity” in series [1] (dog, treatment periods of two, four and six days, CellTiter-Blue, n=4); “extending the duration of dosing increases the cyclophosphamide cytotoxicity” in series [2] (human, treatment periods of two, four and six days, CellTiter-Blue, n=4); “extending the duration of dosing increases the cyclophosphamide cytotoxicity” in series [3] (primate, treatment periods of two, four and six days, CellTiter-Blue, n=4); “extending the duration of dosing increases the cyclophosphamide cytotoxicity” in series [4] (rat, treatment periods of two, four and six days, CellTiter-Blue, n=4).
`Cc1c(C)c2c(c(C)c1O)CCC(C)(COc1ccc(CC3SC(=O)NC3=O)cc1)O2` (stereo not shown) [Troglitazone]: the “LC50 (TC50)” value in series [1] (dog, 6 days) was 267 µM; in series [2] (human, 6 days), 308 µM; in series [3] (cynomolgus monkey, 6 days), 207 µM; in series [4] (rat, 6 days) it was 317 µM.
As for `COc1ccccc1Oc1c(NS(=O)(=O)c2ccc(C(C)(C)C)cc2)nc(-c2ncccn2)nc1OCCO` [bosentan], in the series on human hepatocytes, the “LC50 (TC50) at 24 hours” value amounted to 757 µM. Moreover, in series [5], the “known in vivo hepatotoxicity” value is “strong in vivo hepatotoxicity”.
Consider `CN(C)CCCN1c2ccccc2Sc2ccc(Cl)cc21` [chlorpromazine], for which the “LC50 (TC50) at 24 hours” value in the series with human hepatocytes amounted to 21 µM.
Regarding `CC(C)NCC(O)COc1cccc2ccccc12` (stereo not shown) [propranolol], in series [5], the “known in vivo hepatotoxicity” value was “lack of hepatotoxicity”.
